ChEMBL document CHEMBL1147435, “Synthesis and antibiotic activity of the tricyclic furo[3,2-c] isochromen-2-trione unit of the pyranonaphthoquinones” (2004)
≈ marks a conversion by molar mass, not a printed value.

Experiments:
Format in all cases: functional
[1] = tested on: Staphylococcus aureus; assay: Minimum inhibitory concentration of compound against Staphylococcus aureus
[2] = tested on: Bacillus subtilis; assay: Minimum inhibitory concentration of compound against Bacillus subtilis
[3] = tested on: Staphylococcus aureus; assay: Minimum bactericidal concentration of compound against Staphylococcus aureus
[4] = tested on: Bacillus subtilis; assay: Minimum bactericidal concentration of compound against Bacillus subtilis

| MIC [1] [µg/mL] | MIC [2] [µg/mL] | Structure (SMILES) | MBC [3] [µg/mL] | MBC [4] [µg/mL] |
| --- | --- | --- | --- | --- |
| 64 (≈ 256 µM) | 32 (≈ 128 µM) | COC1=CC(=O)C2=C(COC3CC(=O)OC23)C1=O (stereo not drawn) | > 128 | 128 (≈ 512 µM) |
| 128 (≈ 511 µM) | 128 (≈ 511 µM) | COc1ccc2c(c1OC)COC1CC(=O)OC21 (stereo not drawn) | > 128 | > 128 |
